Values joined by “and” are separate entries in the source; they are usually repeats but may differ in a detail not shown here. Identical values can stand only once. Like-named read-outs stand apart in the source and are kept apart here. A value given as a limit tells only on which side of the number the result lay.

A short description of data set [1]: Pharmacokinetics after intravenous or oral dosing, plasma LC/MS/MS. The data set is classed as in vivo. Conditions: fasted male Sprague Dawley rats. How it is done: Fasted, male Sprague Dawley rats were dosed intravenously or orally. Blood samples were collected at pre-determined time points and plasma was separated. Test article concentrations were determined in plasma by a LC/MS/MS method. Non compartmental analysis was performed to estimate the area under the plasma concentration vs. time curve (AUC). Clearance parameters (CL), bioavailabilities (F) and half-lives were calculated.

A further data set deals with AFP model. In words: AFP animal model. The data set is classed as in vivo. From the text: (§1) The efficacy of the compounds when evaluated in additional well-known animal models, AFP, RR, and hyperalgesia, was also explored.
Data set [2] concerns the target Nav1.7 sodium channels (human SCN9A gene) (Homo sapiens (Human), UniProt Q15858). In words: Automated patch clamp (IonWorks Barracuda) of Nav1.7 stably expressed in CHO cells. In kind it is cell-based. An outline of the steps: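 Whole-cell currents from CHO cells, holding −90 mV. Tonic block: 200 ms pre-pulse to −120 mV, step to 0 mV. Inactivated-state block: 20 ms at −100 mV then 20 ms at 0 mV. Percent block of peak inward Na+ current versus vehicle across concentrations gave IC50.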

The test system of the next data set is RR model. The data set is described as follows: RR animal model. The data set is classed as in vivo.
Description: as §1

The subject of another data set is Na+ channels. The data set is described as follows: Blockage of Na+ channels, whole-cell patch clamp, isolated dorsal root ganglion cells. The data set is classed as cell-based, rat. How it is done: Currents are measured using the whole-cell variant of the patch clamp method. INa is elicited by a pulse to −20 mV from a holding potential of −120 mV or −70 mV to measure blockade at the inactivated state (pulse duration of 40 ms), Peak inward current is measured for INa. Pacing rates of […] are examined. Increasing concentrations of test compounds are added to the cells in a cumulative manner to generate a concentration-response relationship which is utilized to calculate the IC50.

Where [3] appears, read: inactivated state block, CHO cells, read-out: Inactivated state IC50.

Nav1.7 sodium channels (human SCN9A gene), sequence (Q15858 whole entry): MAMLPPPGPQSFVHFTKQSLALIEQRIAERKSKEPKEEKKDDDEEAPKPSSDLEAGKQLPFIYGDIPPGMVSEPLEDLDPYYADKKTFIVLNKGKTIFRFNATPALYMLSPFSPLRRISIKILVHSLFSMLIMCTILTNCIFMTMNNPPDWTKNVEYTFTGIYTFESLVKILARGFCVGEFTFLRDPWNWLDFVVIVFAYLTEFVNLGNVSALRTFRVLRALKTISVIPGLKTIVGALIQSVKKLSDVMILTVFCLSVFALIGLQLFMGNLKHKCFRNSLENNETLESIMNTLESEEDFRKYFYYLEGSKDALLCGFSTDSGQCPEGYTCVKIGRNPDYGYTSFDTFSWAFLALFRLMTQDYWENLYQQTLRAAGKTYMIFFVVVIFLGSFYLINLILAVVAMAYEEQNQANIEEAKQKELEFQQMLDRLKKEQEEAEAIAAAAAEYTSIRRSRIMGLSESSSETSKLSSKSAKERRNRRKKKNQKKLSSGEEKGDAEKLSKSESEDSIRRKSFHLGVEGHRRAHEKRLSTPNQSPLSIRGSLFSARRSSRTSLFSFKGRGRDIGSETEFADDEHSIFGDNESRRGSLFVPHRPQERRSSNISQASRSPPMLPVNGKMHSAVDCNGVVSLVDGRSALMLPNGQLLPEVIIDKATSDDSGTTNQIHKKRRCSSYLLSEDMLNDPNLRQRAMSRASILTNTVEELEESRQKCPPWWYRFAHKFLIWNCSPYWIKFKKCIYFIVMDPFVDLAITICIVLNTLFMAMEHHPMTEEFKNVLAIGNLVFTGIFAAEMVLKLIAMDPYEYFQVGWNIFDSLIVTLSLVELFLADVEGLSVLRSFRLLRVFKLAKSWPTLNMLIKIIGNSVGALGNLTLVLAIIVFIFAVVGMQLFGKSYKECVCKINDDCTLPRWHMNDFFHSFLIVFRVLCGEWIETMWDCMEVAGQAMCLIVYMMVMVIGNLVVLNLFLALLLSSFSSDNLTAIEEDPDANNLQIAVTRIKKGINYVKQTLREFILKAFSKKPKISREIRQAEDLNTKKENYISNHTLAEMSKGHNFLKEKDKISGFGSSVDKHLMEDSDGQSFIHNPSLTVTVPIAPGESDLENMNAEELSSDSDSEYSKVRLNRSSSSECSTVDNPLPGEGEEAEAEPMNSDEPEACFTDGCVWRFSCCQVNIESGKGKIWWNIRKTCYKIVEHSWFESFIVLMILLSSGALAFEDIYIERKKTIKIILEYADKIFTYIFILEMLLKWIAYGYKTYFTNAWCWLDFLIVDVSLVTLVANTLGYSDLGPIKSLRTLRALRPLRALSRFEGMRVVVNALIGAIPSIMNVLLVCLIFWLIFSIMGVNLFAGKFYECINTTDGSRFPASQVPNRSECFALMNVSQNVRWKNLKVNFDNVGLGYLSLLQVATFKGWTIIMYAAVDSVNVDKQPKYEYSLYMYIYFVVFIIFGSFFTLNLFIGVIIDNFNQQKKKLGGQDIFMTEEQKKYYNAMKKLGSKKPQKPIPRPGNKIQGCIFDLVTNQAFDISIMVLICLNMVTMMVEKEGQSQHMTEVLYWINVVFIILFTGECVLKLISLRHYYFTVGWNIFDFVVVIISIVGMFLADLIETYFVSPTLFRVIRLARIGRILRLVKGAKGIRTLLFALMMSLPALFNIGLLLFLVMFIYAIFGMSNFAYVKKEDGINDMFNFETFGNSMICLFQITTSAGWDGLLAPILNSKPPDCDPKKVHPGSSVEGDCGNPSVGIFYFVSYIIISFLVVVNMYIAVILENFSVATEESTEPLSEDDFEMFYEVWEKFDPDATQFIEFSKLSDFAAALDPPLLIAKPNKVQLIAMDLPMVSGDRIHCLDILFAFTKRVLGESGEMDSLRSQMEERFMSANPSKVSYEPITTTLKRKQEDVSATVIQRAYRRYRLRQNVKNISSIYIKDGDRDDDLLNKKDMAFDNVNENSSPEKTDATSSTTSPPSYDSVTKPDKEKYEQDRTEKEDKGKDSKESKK

As to `Cl.Cl.Nc1nc(N2CCN(C[C@H](O)COCC(F)(F)F)CC2)nnc1-c1cccc(Cl)c1Cl` [Compound 95, (S)-1-(4-(5-amino-6-(2,3-dichlorophenyl)-1,2,4-triazin-3-yl)-piperazin-1-yl)-3-(2,2,2-trifluoroethoxy)-propan-2-ol-2HCl], in data set [1], the “pharmacokinetics (qualitative ranking of the compounds tested)” value is reported as “most favorable pharmacokinetics” and the “exposure after oral dosing (qualitative ranking)” value (from here on “exposure after oral dosing”) was “best exposure after oral dosing”. The “MED (mg/kg)” value in the data set with AFP model (AFP, Ph 1, timepoint 0.5 h, 500 mg/kg as 2 doses @ 250 mg/kg) is recorded as 500 (Ph 1) mg/kg.
For the compound `Nc1nc(N2CCN(C[C@H](O)CCl)CC2)nnc1-c1cccc(Cl)c1Cl` [Compound 207, (S)-1-(4-(5-amino-6-(2,3-dichlorophenyl)-1,2,4-triazin-3-yl)piperazin-1-yl)-3-chloropropan-2-ol], the IC50 in data set [2] (setting [3]) was 107 µM and 133 µM; in data set [2] (tonic (resting) state block, CHO cells, read-out: Tonic state IC50) it was more than 200 µM. The “exposure after oral dosing” value in data set [1] is given as “best exposure after oral dosing”. The 50% effect level in the data set on AFP model (0.5 h) (ED50) was put at a dose of 476 mg/kg. Moreover, in the data set with AFP model (AFP, Ph 2, timepoint 0.5 h, minimum effective dose), the “MED (mg/kg)” value is 300 (Ph 2) mg/kg.
In the case of `Nc1nc(NCCOCCOC(F)(F)F)nnc1-c1cccc(Cl)c1Cl` [Compound 45, 6-(2,3-Dichlorophenyl)-N^3-(2-(2-(trifluoromethoxy)ethoxy)ethyl)-1,2,4-triazine-3,5-diamine], the ED50 in the data set with RR model (0.5 h) is 21 mg/kg; in the data set with RR model (1 h), 18.9 mg/kg; in the data set with AFP model (AFP, Ph 2, timepoint 0.25 h, read-out: ED50) it was 46.8 mg/kg. The “MED” value with RR model (timepoints 0.5, 1 h, minimum effective dose) was found to be 30 mg/kg. In data set [1], the “exposure after oral dosing” value is “best exposure after oral dosing”. Also, the “MED (mg/kg)” value in the data set on AFP model (AFP, Ph 2, timepoint 0.25 h, minimum effective dose) is on record as 30 (Ph 2) mg/kg.
Turning to `COC[C@@H](O)CN1CCN(c2nnc(-c3cccc(Cl)c3Cl)c(N)n2)CC1` [Compound 97, (S)-1-(4-(5-amino-6-(2,3-dichlorophenyl)-1,2,4-triazin-3-yl)piperazin-1-yl)-3-methoxypropan-2-ol], the IC50 was 90.5 µM in data set [2] (setting [3]); < 50 µM and 82.2 µM in data set [2] (read-out: Inactivated state IC50); more than 200 µM in data set [2] (read-out: Tonic state IC50); 39.5 µM in the data set with Na+ channels (Vh −70 mV (inactivated state), pacing 0.1 Hz, read-out: IC50 (μM) 0.1 Hz); 21.5 µM with Na+ channels (Vh −70 mV (inactivated state), pacing 3 Hz, read-out: IC50 (μM) 3 Hz); 16.5 µM in the data set on Na+ channels (Vh −70 mV (inactivated state), pacing 10 Hz, read-out: IC50 (μM) 10 Hz). Also, the IC50 in the data set on Na+ channels (Vh −120 mV, pacing 0.1 Hz, read-out: IC50 (μM) 0.1 Hz) is more than 100 µM; in the data set on Na+ channels (Vh −120 mV, pacing 3 Hz, read-out: IC50 (μM) 3 Hz), more than 100 µM; in the data set on Na+ channels (Vh −120 mV, pacing 10 Hz, read-out: IC50 (μM) 10 Hz), 74.4 µM. Further, in data set [1], the “pharmacokinetics (qualitative ranking of the compounds tested)” value is recorded as “most favorable pharmacokinetics”. For the same compound, the “exposure after oral dosing” value in data set [1] is “best exposure after oral dosing”.

For the origin of these results see patent publication US10189859B2, “Derivatives of 6-(2,3-dichlorophenyl)-1,2,4-triazin-5-amine” (Nektar Therapeutics, priority 2013, dated 2019).
